Like-named read-outs stand apart in the source and are kept apart here.
Tests used:
Type in all cases: cell-based
Escherichia coli = assay: Broth microdilution MIC (Example 6); conditions: Escherichia coli, read-out: MIC
Procedure: (§1) Test Compounds: The test agents BisEDT (MB-1-B3; Lot No. ED268-1-11-01), MB-2B, and MB-6 were stored at room temperature, in the dark, until assayed.
(§2) For testing daptomycin, calcium was supplemented with […] Ca^2+, resulting in a final concentration of […] Ca^2+ (2, 3).
(§3) MIC Assay Procedure: MIC values were determined using a broth microdilution procedure described by CLSI (2, 3).
(§4) The Biomek 2000 was then used to make 2-fold serial dilutions in the mother plates from column 1 through column 11. The wells of column 12 contained no drug and served as the organism growth control wells for the assay.
(§5) The test panels were prepared on the Biomek FX instrument which transferred 2 μL of drug solution from each well of a mother plate to the corresponding well of each daughter plate in a single step.
(§6) A standardized inoculum of each test organism was prepared per CLSI methods to equal a 0.5 McFarland standard, followed by a dilution of 1:20. The plates were then inoculated with 10 μL of the diluted inoculum using the Biomek 2000 from low to high drug concentration resulting in a final concentration of approximately 5×10^5 CFU/mL.
(§7) Plates were stacked 3-4 high, covered with a lid on the top plate, placed into plastic bags, and incubated at 35° C. for 16 to 20 hr (vancomycin was read for S. aureus after 24 hr incubation time). The MIC was recorded as the lowest concentration of drug that inhibited visible growth of the organism.

Klebsiella pneumoniae = assay: Broth microdilution MIC (Example 6); conditions: Klebsiella pneumoniae, read-out: MIC
Procedure: as §1, §2, §3, §4, §5, §6, §7

Pseudomonas aeruginosa = assay: Broth microdilution MIC (Example 6); conditions: Pseudomonas aeruginosa, read-out: MIC
Procedure: as §1, §2, §3, §4, §5, §6, §7

Acinetobacter baumannii = assay: Broth microdilution MIC (Example 6); conditions: Acinetobacter baumannii, read-out: MIC
Outline: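 CLSI broth microdilution in cation-adjusted Mueller Hinton broth, test agents 0.06-64 μg/mL from DMSO stocks, inoculum approx. 5×10^5 CFU/mL. Incubation 35° C for 16–20 hr; MIC taken as lowest concentration inhibiting visible growth.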

[1] = system: relevant ATCC QC organisms; assay: Broth microdilution MIC, QC (Example 6); conditions: read-out: MIC
Outline: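 QC strains were tested per CLSI broth microdilution in cation-adjusted Mueller Hinton broth, with Ca2+ supplemented for daptomycin, at about 5×10^5 CFU/mL. Incubation was at 35° C for 16–20 hr, or 24 hr for vancomycin against S. aureus. The MIC was the lowest concentration inhibiting visible growth.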

[2] = ATCC35218, E. coli ATCC 35218, ESBL
[3] = ATCCBAA2471, E. coli ATCC BAA-2471, NDM
[4] = ATCCBAA1705, K. pneumoniae ATCC BAA-1705, ESBL/KPC
[5] = K. pneumoniae CDC 113, ESBL/KPC
[6] = K. pneumoniae CDC 115, ESBL/KPC
[7] = K. pneumoniae CDC 120, ESBL/KPC
[8] = K. pneumoniae CDC 126, ESBL/KPC
[9] = K. pneumoniae CDC 129, ESBL/KPC
[10] = K. pneumoniae CDC 135, ESBL/VIM
[11] = K. pneumoniae CDC 138, ESBL/NDM
[12] = K. pneumoniae CDC 158, ESBL/NDM/OXA
[13] = P. aeruginosa isolate CDC 230, β-lactamase type VIM/OXA
[14] = P. aeruginosa isolate CDC 231, β-lactamase type KPC/OXA
[15] = P. aeruginosa isolate CDC 241, β-lactamase type IMP/OXA
[16] = P. aeruginosa isolate CDC 246, β-lactamase type NDM/OXA
[17] = P. aeruginosa isolate CDC 250, β-lactamase type NDM/OXA
[18] = P. aeruginosa isolate CDC 356, β-lactamase type KPC
[19] = P. aeruginosa isolate CDC 439, β-lactamase type IMP
[20] = P. aeruginosa isolate CDC 444, β-lactamase type VIM
[21] = P. aeruginosa isolate CDC 457, β-lactamase type VIM
[22] = P. aeruginosa isolate CDC 516, β-lactamase type KPC/AmpC
[23] = P. aeruginosa isolate CDC 518, β-lactamase type KPC/AmpC
[24] = A. baumannii isolate CDC 273, β-lactamase type ESBL/OXA
[25] = A. baumannii isolate CDC 274, β-lactamase type ESBL/OXA
[26] = A. baumannii isolate CDC 275, β-lactamase type ESBL/OXA
[27] = A. baumannii isolate CDC 277, β-lactamase type ESBL/OXA
[28] = A. baumannii isolate CDC 284, β-lactamase type ESBL/OXA
[29] = A. baumannii isolate CDC 307, β-lactamase type OXA
[30] = A. baumannii isolate CDC 308, β-lactamase type ESBL/OXA
[31] = A. baumannii isolate CDC 311, β-lactamase type OXA
[32] = A. baumannii isolate CDC 312, β-lactamase type OXA
[33] = A. baumannii isolate CDC 313, β-lactamase type ESBL/OXA
[34] = NCTC13304, A. baumannii isolate NCTC 13304, β-lactamase type OXA
[35] = Escherichia coli, ATCC25922, E. coli ATCC 25922
[36] = Escherichia coli, ATCC35218, E. coli ATCC 35218
[37] = Klebsiella pneumoniae, ATCCBAA1705, K. pneumoniae ATCC BAA-1705
[38] = Pseudomonas aeruginosa, ATCC27853, P. aeruginosa ATCC 27853

Measured: MIC

CC(C)(O/N=C(\C(=O)N[C@@H]1C(=O)N2C(C(=O)[O-])=C(C[n+]3ccccc3)CS[C@H]12)c1csc(N)n1)C(=O)O [Ceftazidime]
16 µg/mL: Escherichia coli; E. coli MMX 5758, ESBL
32 µg/mL: Escherichia coli; E. coli MMX 5745, KPC | Pseudomonas aeruginosa; [20] | Pseudomonas aeruginosa; [23]
4 µg/mL: Klebsiella pneumoniae; [8] | Klebsiella pneumoniae; K. pneumoniae MMX 9029, ESBL
0.12 µg/mL: Escherichia coli; [2] | [1]; [36]
0.25 µg/mL: [1]; [35]
64 µg/mL: Escherichia coli; E. coli CDC 451, KPC | Pseudomonas aeruginosa; [13] | Pseudomonas aeruginosa; [18] | Pseudomonas aeruginosa; [22] | Acinetobacter baumannii; [24] | Acinetobacter baumannii; [28] | Acinetobacter baumannii; [29] | Acinetobacter baumannii; [30]
> 64 µg/mL: Escherichia coli; [3] | Escherichia coli; E. coli CDC 114, ESBL/KPC | Escherichia coli; E. coli CDC 118, ESBL/NDM | Escherichia coli; E. coli CDC 435, NDM | Escherichia coli; E. coli CDC 503, ESBL/NDM | Escherichia coli; E. coli MMX 5755, ESBL | Escherichia coli; E. coli MMX 5756, ESBL | Klebsiella pneumoniae; [4] | Klebsiella pneumoniae; K. pneumoniae CDC 112, KPC | Klebsiella pneumoniae; [5] | Klebsiella pneumoniae; [6] | Klebsiella pneumoniae; [7] | Klebsiella pneumoniae; [9] | Klebsiella pneumoniae; [10] | Klebsiella pneumoniae; [11] | Klebsiella pneumoniae; [12] | Pseudomonas aeruginosa; [14] | Pseudomonas aeruginosa; [15] | Pseudomonas aeruginosa; [16] | Pseudomonas aeruginosa; [17] | Pseudomonas aeruginosa; [19] | Pseudomonas aeruginosa; [21] | Acinetobacter baumannii; [25] | Acinetobacter baumannii; [26] | Acinetobacter baumannii; [27] | Acinetobacter baumannii; [31] | Acinetobacter baumannii; [32] | Acinetobacter baumannii; [33] | Acinetobacter baumannii; [34] | [1]; [37]
2 µg/mL: [1]; [38]

C[C@H]1COc2c(N3CCN(C)CC3)c(F)cc3c(=O)c(C(=O)O)cn1c23 [Levofloxacin]
≤ 0.008 µg/mL: Escherichia coli; [2] | [1]; [35] | [1]; [36]
0.06 µg/mL: [1]; Staphylococcus aureus, ATCC29213, S. aureus ATCC 29213
0.5 µg/mL: [1]; [38]
8 µg/mL: Escherichia coli; E. coli CDC 118, ESBL/NDM | Escherichia coli; E. coli MMX 5745, KPC | Escherichia coli; E. coli MMX 5755, ESBL | Escherichia coli; E. coli MMX 5758, ESBL | Pseudomonas aeruginosa; [13] | Pseudomonas aeruginosa; [15] | Pseudomonas aeruginosa; [19] | Pseudomonas aeruginosa; [20] | Acinetobacter baumannii; [25] | Acinetobacter baumannii; [27] | Acinetobacter baumannii; [28] | Acinetobacter baumannii; [29]
4 µg/mL: Escherichia coli; E. coli CDC 114, ESBL/KPC | Escherichia coli; E. coli MMX 5756, ESBL | Klebsiella pneumoniae; K. pneumoniae CDC 112, KPC | Klebsiella pneumoniae; [5] | Klebsiella pneumoniae; [12] | Acinetobacter baumannii; [26] | Acinetobacter baumannii; [30]
0.25 µg/mL: Pseudomonas aeruginosa; [22]
0.015 µg/mL: Klebsiella pneumoniae; [8]
1 µg/mL: Acinetobacter baumannii; [34]
2 µg/mL: Acinetobacter baumannii; [31] | Acinetobacter baumannii; [32] | Acinetobacter baumannii; [33]
> 8 µg/mL: Escherichia coli; [3] | Escherichia coli; E. coli CDC 435, NDM | Escherichia coli; E. coli CDC 451, KPC | Escherichia coli; E. coli CDC 503, ESBL/NDM | Klebsiella pneumoniae; [4] | Klebsiella pneumoniae; [6] | Klebsiella pneumoniae; [7] | Klebsiella pneumoniae; [9] | Klebsiella pneumoniae; [10] | Klebsiella pneumoniae; [11] | Pseudomonas aeruginosa; [14] | Pseudomonas aeruginosa; [16] | Pseudomonas aeruginosa; [17] | Pseudomonas aeruginosa; [21] | Pseudomonas aeruginosa; [23] | Acinetobacter baumannii; [24] | [1]; [37]
0.12 µg/mL: Klebsiella pneumoniae; K. pneumoniae MMX 9029, ESBL | Pseudomonas aeruginosa; [18]
